{"source": "ChEMBL document CHEMBL4619707", "about": "“Synthesis and biological investigation of triazolopyridinone derivatives as potential multireceptor atypical antipsychotics” (Bioorg Med Chem Lett, 2020)", "key": {"[1]": {"molecular_target": "T1, 5-hydroxytryptamine receptor 1A (Homo sapiens, UniProt P08908)", "T1 sequence (P08908 whole entry)": "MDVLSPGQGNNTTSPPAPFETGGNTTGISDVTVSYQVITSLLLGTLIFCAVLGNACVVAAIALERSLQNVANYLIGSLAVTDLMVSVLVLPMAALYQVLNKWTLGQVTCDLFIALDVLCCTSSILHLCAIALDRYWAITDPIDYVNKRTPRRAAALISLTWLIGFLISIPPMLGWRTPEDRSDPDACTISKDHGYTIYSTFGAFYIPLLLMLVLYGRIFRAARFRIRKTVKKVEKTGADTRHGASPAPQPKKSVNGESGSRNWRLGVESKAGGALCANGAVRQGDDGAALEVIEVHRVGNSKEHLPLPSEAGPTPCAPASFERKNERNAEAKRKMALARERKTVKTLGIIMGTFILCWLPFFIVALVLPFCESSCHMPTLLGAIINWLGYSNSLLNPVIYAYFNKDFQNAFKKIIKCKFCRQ", "test": "Agonist activity at 5HT1A receptor (unknown origin) by calcium-dye based FLIPR assay", "assay_type": "functional"}, "[2]": {"molecular_target": "5-hydroxytryptamine receptor 2A (Homo sapiens, UniProt P28223)", "sequence (P28223 whole entry)": "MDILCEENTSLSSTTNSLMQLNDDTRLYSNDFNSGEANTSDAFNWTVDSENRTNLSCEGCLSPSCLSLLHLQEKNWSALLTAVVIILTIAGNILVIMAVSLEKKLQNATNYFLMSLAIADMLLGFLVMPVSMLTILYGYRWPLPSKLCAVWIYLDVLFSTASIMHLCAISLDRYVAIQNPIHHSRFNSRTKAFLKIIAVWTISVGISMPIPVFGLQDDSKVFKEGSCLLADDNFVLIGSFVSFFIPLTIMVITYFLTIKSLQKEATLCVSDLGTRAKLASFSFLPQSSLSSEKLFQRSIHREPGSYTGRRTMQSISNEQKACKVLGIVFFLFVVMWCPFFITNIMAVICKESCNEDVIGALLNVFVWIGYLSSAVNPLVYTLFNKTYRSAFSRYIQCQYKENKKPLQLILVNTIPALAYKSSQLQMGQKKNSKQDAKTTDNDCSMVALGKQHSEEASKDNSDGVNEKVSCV", "test": "Antagonist activity at 5HT2A receptor (unknown origin) by HTRF cAMP assay", "assay_type": "functional"}, "[3]": {"system": "Mus musculus", "test": "Antipsychotic activity in po dosed ICR mouse assessed as inhibition of quipazine-induced head-twitch response administered with compound after quipazine administration measured for 15 mins", "assay_type": "functional, organism-based"}, "[4]": {"system": "HEK293", "test": "Cytotoxicity against human HEK293 cells assessed as reduction in cell viability", "assay_type": "cell-based"}, "[5]": {"test": "Toxicity in mouse assessed as sedation by measuring spontaneous locomotor activity at 0.3 mg/kg, po", "assay_type": "organism-based", "conditions": "in vivo"}, "[6]": {"test": "Toxicity in mouse assessed as sedation by measuring spontaneous locomotor activity at 3 to 10 mg/kg, po", "assay_type": "organism-based", "conditions": "in vivo"}, "[7]": {"system": "Mus musculus", "test": "Antipsychotic activity in po dosed mouse assessed as inhibition of phencyclidine-induced hyperlocomotion administered with compound after phencyclidine challenge measured for 75 mins", "assay_type": "functional, organism-based"}, "[8]": {"system": "Mus musculus", "test": "Antipsychotic activity in ICR mouse assessed as inhibition of quipazine-induced head-twitch response at 0.3 mg/kg, po administered with compound after quipazine administration measured for 15 mins", "assay_type": "functional, organism-based"}, "[9]": {"molecular_target": "Voltage-gated inwardly rectifying potassium channel KCNH2 (Homo sapiens, UniProt Q12809)", "sequence (Q12809 whole entry)": "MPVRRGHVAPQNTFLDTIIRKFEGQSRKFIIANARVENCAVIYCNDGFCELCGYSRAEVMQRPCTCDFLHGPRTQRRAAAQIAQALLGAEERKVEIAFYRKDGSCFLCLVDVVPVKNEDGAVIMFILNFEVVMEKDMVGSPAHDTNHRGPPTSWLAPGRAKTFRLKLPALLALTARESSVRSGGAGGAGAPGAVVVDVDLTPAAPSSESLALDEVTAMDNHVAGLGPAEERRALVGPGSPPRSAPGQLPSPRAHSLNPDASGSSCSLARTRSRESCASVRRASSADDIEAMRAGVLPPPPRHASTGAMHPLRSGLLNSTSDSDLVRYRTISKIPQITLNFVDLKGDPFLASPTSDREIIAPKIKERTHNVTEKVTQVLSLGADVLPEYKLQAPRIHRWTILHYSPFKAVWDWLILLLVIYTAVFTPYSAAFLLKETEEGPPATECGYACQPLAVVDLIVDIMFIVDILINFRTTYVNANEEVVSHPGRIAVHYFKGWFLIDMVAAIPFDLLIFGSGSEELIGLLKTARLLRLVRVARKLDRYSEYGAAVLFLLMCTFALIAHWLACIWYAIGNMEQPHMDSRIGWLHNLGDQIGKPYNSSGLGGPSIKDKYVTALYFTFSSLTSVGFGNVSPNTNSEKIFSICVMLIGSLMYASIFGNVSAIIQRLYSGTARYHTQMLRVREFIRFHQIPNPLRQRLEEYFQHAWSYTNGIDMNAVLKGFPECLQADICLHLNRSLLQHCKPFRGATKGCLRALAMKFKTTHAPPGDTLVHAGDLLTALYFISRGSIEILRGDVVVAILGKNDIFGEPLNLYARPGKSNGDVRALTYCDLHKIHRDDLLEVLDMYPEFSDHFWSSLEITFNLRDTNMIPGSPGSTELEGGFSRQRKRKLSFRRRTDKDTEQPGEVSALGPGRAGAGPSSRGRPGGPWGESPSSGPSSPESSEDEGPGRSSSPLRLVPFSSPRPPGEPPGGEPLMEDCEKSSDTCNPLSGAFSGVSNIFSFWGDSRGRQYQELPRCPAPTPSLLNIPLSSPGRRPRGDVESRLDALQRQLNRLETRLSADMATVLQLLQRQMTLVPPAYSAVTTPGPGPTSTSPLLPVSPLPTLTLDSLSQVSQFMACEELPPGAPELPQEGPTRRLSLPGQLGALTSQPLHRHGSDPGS", "test": "Inhibition of human ERG"}, "[10]": {"molecular_target": "Muscarinic acetylcholine receptor M3 (Homo sapiens, UniProt P20309)", "sequence (P20309 whole entry)": "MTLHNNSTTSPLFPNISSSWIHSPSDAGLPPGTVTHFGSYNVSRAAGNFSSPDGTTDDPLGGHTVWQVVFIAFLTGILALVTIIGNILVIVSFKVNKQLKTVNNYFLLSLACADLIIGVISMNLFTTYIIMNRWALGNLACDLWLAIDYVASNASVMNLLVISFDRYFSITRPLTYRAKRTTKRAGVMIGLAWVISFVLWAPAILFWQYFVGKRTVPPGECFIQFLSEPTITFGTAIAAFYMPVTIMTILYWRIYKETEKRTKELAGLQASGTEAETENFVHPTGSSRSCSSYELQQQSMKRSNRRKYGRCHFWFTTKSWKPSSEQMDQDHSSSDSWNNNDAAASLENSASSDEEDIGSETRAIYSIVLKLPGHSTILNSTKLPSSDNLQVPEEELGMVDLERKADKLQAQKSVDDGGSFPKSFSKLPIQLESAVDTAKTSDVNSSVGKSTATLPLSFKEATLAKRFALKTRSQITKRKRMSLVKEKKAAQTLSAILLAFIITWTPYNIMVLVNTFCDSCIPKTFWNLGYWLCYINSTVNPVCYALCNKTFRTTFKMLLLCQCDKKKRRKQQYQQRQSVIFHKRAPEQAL", "test": "Antagonist activity at muscarinic M3 receptor (unknown origin)", "assay_type": "ADME"}, "[11]": {"molecular_target": "T2, 5-hydroxytryptamine receptor 2C (Homo sapiens, UniProt P28335)", "T2 sequence (P28335 whole entry)": "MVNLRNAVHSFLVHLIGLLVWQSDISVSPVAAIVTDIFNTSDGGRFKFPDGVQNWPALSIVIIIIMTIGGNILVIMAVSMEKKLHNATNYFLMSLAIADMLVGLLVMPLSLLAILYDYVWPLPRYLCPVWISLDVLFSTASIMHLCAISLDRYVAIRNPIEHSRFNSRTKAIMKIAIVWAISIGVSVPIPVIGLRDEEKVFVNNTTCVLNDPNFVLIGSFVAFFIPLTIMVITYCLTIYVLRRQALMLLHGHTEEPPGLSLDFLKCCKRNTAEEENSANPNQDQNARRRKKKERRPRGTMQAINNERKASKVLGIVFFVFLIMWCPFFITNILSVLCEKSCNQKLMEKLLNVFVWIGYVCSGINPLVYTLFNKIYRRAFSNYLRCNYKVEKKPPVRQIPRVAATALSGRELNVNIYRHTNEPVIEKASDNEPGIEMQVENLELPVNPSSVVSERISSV", "test": "Antagonist activity at 5-HT2C receptor (unknown origin)"}, "[12]": {"molecular_target": "Histamine H1 receptor (Homo sapiens, UniProt P35367)", "sequence (P35367 whole entry)": "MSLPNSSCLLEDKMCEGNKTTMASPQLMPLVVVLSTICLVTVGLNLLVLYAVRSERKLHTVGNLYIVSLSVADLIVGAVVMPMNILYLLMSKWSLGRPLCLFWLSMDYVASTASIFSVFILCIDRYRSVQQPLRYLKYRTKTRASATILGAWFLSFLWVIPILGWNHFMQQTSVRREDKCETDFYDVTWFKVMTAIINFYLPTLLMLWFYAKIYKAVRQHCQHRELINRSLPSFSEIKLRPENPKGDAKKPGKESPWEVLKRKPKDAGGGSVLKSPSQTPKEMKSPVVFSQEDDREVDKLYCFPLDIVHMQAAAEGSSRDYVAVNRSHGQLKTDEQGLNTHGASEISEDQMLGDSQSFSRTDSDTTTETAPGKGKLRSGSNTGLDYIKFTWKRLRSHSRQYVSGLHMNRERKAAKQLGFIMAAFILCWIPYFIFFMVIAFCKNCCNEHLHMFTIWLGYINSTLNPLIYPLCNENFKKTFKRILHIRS", "test": "Antagonist activity at H1 receptor (unknown origin)", "assay_type": "ADME"}, "[13]": {"molecular_target": "T3, D(2) dopamine receptor (Homo sapiens, UniProt P14416)", "T3 sequence (P14416 whole entry)": "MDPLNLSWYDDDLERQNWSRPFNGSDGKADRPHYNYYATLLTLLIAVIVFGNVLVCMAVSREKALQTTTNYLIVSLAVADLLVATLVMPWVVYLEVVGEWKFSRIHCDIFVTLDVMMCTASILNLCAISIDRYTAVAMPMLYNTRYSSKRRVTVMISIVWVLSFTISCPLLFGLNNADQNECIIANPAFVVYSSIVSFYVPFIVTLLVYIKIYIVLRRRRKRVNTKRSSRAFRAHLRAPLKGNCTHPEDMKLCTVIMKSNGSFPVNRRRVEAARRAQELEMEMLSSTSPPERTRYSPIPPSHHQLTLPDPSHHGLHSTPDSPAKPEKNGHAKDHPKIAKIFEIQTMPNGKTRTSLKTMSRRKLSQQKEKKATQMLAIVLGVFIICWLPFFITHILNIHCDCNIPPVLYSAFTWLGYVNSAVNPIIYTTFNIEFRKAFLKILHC", "test": "Agonist activity at D2 receptor (unknown origin)"}, "[14]": {"molecular_target": "T3, D(2) dopamine receptor", "test": "Agonist activity at D2 receptor (unknown origin) relative to 10 uM dopamine"}, "[15]": {"test": "Cytotoxicity against human Chang cells assessed as reduction in cell viability", "assay_type": "cell-based"}, "[16]": {"molecular_target": "Sodium-dependent serotonin transporter (Homo sapiens) (UniProt P31645)", "sequence (P31645 whole entry, looked up)": "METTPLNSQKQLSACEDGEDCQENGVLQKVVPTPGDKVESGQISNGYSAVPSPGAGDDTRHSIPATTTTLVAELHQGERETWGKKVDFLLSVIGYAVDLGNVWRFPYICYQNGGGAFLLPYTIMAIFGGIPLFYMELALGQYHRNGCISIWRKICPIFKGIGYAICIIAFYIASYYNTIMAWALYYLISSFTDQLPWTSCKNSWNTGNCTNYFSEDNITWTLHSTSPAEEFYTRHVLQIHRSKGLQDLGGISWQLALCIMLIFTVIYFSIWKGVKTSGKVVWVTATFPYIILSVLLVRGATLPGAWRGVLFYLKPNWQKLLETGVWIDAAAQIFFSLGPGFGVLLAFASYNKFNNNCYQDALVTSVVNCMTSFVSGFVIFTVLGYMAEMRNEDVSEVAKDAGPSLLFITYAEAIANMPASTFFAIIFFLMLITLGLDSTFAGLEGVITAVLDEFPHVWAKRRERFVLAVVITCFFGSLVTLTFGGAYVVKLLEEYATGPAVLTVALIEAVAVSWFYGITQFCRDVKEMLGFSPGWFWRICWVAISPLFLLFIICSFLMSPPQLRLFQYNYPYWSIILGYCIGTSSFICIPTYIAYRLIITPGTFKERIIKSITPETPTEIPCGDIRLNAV", "conditions": "400 nM", "description": "Antagonist activity at SERT receptor (unknown origin) at 400 nM by fluorescence based assay relative to control"}}, "note": "Activity calls are given as the source filed them. No cut-off for these calls is given here.", "data": [{"smiles": "O=c1n(CCCCN2CCN(c3cccc4sccc34)CC2)nc2c(F)cc(F)cn12", "values": [{"measurement": "EC50", "setting": "[1]", "value": 1.2, "unit": "nM"}, {"measurement": "IC50", "setting": "[2]", "value": 27, "unit": "nM"}]}, {"smiles": "COc1cccn2c(=O)n(CCCCN3CCN(c4cccc5sccc45)CC3)nc12", "values": [{"measurement": "EC50", "setting": "[1]", "value": 2.2, "unit": "nM"}, {"measurement": "IC50", "setting": "[2]", "value": 85.2, "unit": "nM"}]}, {"smiles": "O=c1n(CCCCN2CCN(c3cccc4sccc34)CC2)nc2ccccn12", "values": [{"measurement": "inhibition", "setting": "[3]", "value": "Dose-dependent effect"}, {"measurement": "EC50", "setting": "[1]", "value": "1.7 to 1.8", "unit": "nM"}, {"measurement": "IC50", "setting": "[2]", "value": 34.2, "unit": "nM"}, {"measurement": "IC50", "setting": "[4]", "value": 108, "unit": "µg/mL"}, {"measurement": "Activity", "setting": "[5]", "value": "Non-Toxic"}, {"measurement": "Activity", "setting": "[6]", "value": "Toxic"}, {"measurement": "inhibition", "setting": "[7]", "value": "Dose-dependent effect"}, {"measurement": "inhibition", "setting": "[8]", "value": "Active"}, {"measurement": "IC50", "setting": "[9]", "value": 3010, "unit": "nM"}, {"measurement": "IC50", "setting": "[10]", "value": "> 10000", "unit": "nM"}, {"measurement": "IC50", "setting": "[11]", "value": "> 10000", "unit": "nM"}, {"measurement": "IC50", "setting": "[12]", "value": 88.5, "unit": "nM"}]}, {"smiles": "O=c1n(CCCCN2CCN(c3cccc4sccc34)CC2)nc2c(Cl)cccn12", "values": [{"measurement": "EC50", "setting": "[1]", "value": 12.1, "unit": "nM"}, {"measurement": "IC50", "setting": "[2]", "value": 368, "unit": "nM"}]}, {"smiles": "O=c1n(CCCCN2CCN(c3cccc4sccc34)CC2)nc2c(Br)cccn12", "values": [{"measurement": "EC50", "setting": "[1]", "value": 7, "unit": "nM"}, {"measurement": "IC50", "setting": "[2]", "value": 131, "unit": "nM"}]}, {"smiles": "N#Cc1cccc2nn(CCCCN3CCN(c4cccc5sccc45)CC3)c(=O)n12", "values": [{"measurement": "EC50", "setting": "[1]", "value": 20.2, "unit": "nM"}, {"measurement": "IC50", "setting": "[2]", "value": 104, "unit": "nM"}]}, {"smiles": "N#Cc1ccc2nn(CCCCN3CCN(c4cccc5sccc45)CC3)c(=O)n2c1", "values": [{"measurement": "EC50", "setting": "[1]", "value": 9.7, "unit": "nM"}, {"measurement": "IC50", "setting": "[2]", "value": 11, "unit": "nM"}, {"measurement": "IC50", "setting": "[9]", "value": 1050, "unit": "nM"}, {"measurement": "IC50", "setting": "[10]", "value": "> 10000", "unit": "nM"}, {"measurement": "IC50", "setting": "[11]", "value": 3290, "unit": "nM"}, {"measurement": "IC50", "setting": "[12]", "value": 76.6, "unit": "nM"}]}, {"smiles": "O=c1n(CCCCN2CCN(c3cccc4sc(F)cc34)CC2)nc2c(F)cccn12", "values": [{"measurement": "EC50", "setting": "[1]", "value": 1.53, "unit": "nM"}, {"measurement": "IC50", "setting": "[2]", "value": 1070, "unit": "nM"}]}, {"smiles": "O=c1n(CCCCN2CCN(c3cccc4sccc34)CC2)nc2ccc(F)cn12", "values": [{"measurement": "EC50", "setting": "[1]", "value": 0.1, "unit": "nM"}, {"measurement": "IC50", "setting": "[2]", "value": 46.3, "unit": "nM"}]}, {"smiles": "O=c1n(CCCCN2CCC(c3cc(F)cc4oncc34)CC2)nc2ccccn12", "values": [{"measurement": "EC50", "setting": "[1]", "value": "> 10000", "unit": "nM"}, {"measurement": "IC50", "setting": "[2]", "value": 15.2, "unit": "nM"}]}, {"smiles": "O=c1ccc2ccc(OCCCCN3CCN(c4cccc5sccc45)CC3)cc2[nH]1", "note": "[BREXPIPRAZOLE]", "values": [{"measurement": "EC50", "setting": "[13]; read-out: EC50", "value": 6.3, "unit": "nM"}, {"measurement": "Emax", "setting": "[14]", "value": 29, "unit": "%"}, {"measurement": "IC50", "setting": "[15]", "value": 44.2, "unit": "µg/mL"}, {"measurement": "IC50", "setting": "[4]", "value": 19.1, "unit": "µg/mL"}]}, {"smiles": "O=c1n(CCCCN2CCN(c3cccc4sccc34)CC2)nc2ccc(Cl)cn12", "values": [{"measurement": "EC50", "setting": "[1]", "value": 9.5, "unit": "nM"}, {"measurement": "IC50", "setting": "[2]", "value": 144, "unit": "nM"}]}, {"smiles": "O=C1CCc2ccc(OCCCCN3CCN(c4cccc(Cl)c4Cl)CC3)cc2N1", "values": [{"measurement": "inhibition", "setting": "[8]", "value": "Active"}, {"measurement": "inhibition", "setting": "[16]", "value": 21, "unit": "%"}]}, {"smiles": "COc1cccc2nn(CCCCN3CCN(c4cccc5sccc45)CC3)c(=O)n12", "values": [{"measurement": "EC50", "setting": "[1]", "value": 2, "unit": "nM"}, {"measurement": "IC50", "setting": "[2]", "value": 13, "unit": "nM"}, {"measurement": "inhibition", "setting": "[8]", "value": "Active"}]}, {"smiles": "O=c1n(CCCCN2CCN(c3cccc4scnc34)CC2)nc2c(F)cccn12", "values": [{"measurement": "EC50", "setting": "[1]", "value": 0.1, "unit": "nM"}, {"measurement": "IC50", "setting": "[2]", "value": 77.8, "unit": "nM"}]}, {"smiles": "O=c1n(CCCCN2CCN(c3cccc4scnc34)CC2)nc2ccccn12", "values": [{"measurement": "EC50", "setting": "[1]", "value": 2.8, "unit": "nM"}, {"measurement": "IC50", "setting": "[2]", "value": 2730, "unit": "nM"}]}, {"smiles": "O=c1n(CCCN2CCN(c3cccc(Cl)c3)CC2)nc2ccccn12", "note": "[TRAZODONE]", "values": [{"measurement": "EC50", "setting": "[13]", "value": "Not Active"}, {"measurement": "Emax", "setting": "[14]", "value": "< 20", "unit": "%"}]}, {"smiles": "N#Cc1cccn2c(=O)n(CCCCN3CCN(c4cccc5sccc45)CC3)nc12", "values": [{"measurement": "EC50", "setting": "[1]", "value": 1.4, "unit": "nM"}, {"measurement": "IC50", "setting": "[2]", "value": 155, "unit": "nM"}]}, {"smiles": "Cc1nc2n(c(=O)c1CCN1CCC(c3noc4cc(F)ccc34)CC1)CCCC2", "note": "[RISPERIDONE]", "values": [{"measurement": "EC50", "setting": "[13]", "value": "Not Active"}, {"measurement": "Emax", "setting": "[14]", "value": "< 20", "unit": "%"}, {"measurement": "IC50", "setting": "[15]", "value": 239, "unit": "µg/mL"}, {"measurement": "IC50", "setting": "[4]", "value": "> 600", "unit": "µg/mL"}]}, {"smiles": "O=c1n(CCCCN2CCN(c3cccc4sccc34)CC2)nc2c(Cl)cc(Cl)cn12", "values": [{"measurement": "EC50", "setting": "[1]", "value": 0.1, "unit": "nM"}, {"measurement": "IC50", "setting": "[2]", "value": 652, "unit": "nM"}]}, {"smiles": "N#Cc1ccn2c(=O)n(CCCCN3CCN(c4cccc5sccc45)CC3)nc2c1", "values": [{"measurement": "EC50", "setting": "[1]", "value": 5.9, "unit": "nM"}, {"measurement": "IC50", "setting": "[2]", "value": 726, "unit": "nM"}]}, {"smiles": "O=c1n(CCCCN2CCN(c3cccc4sccc34)CC2)nc2c(F)cccn12", "values": [{"measurement": "EC50", "setting": "[1]", "value": 1.8, "unit": "nM"}, {"measurement": "IC50", "setting": "[2]", "value": 35.5, "unit": "nM"}, {"measurement": "inhibition", "setting": "[8]", "value": "Active"}, {"measurement": "IC50", "setting": "[9]", "value": 2200, "unit": "nM"}, {"measurement": "IC50", "setting": "[10]", "value": "> 10000", "unit": "nM"}, {"measurement": "IC50", "setting": "[11]", "value": 2100, "unit": "nM"}]}]}
